Data reported in patent publication US20060205724A1, “Antagonizing nk-1 receptors inhibits consumption of substances of abuse” (The Regents of the University of California, priority 2002, published 2006).

Key:
rats = test: loss of righting reflex (measure of intoxication) in rats administered ethanol; assay type: in vivo, rat; conditions: rats given 3 g/kg of ethanol; vs vehicle-treated animals
Source text: FIG. 1 illustrates the effect of an NK1 receptor antagonist (LY303870) on the loss of righting reflex in rats administrated ethanol at 3 and 4 g/kg. *P<0.05 vs vehicle-treated animals. n=9-10 per group.

rat = test: self-administration of ethanol by a rat (ethanol intake, water intake, ethanol preference); assay type: in vivo
Source text: The graphs show ethanol intake, water intake, and ethanol preference.
FIG. 2 illustrates the effect of administration of the NK1 receptor antagonist LY303870 on self-administration of alcohol by a rat.
Without being bound to a particular theory, it is believed that this effect may be due to failure of WIN 51,708 to cross the blood-brain barrier.

Structure (SMILES): COc1ccccc1CN(C[C@@H](Cc1c[nH]c2ccccc12)NC(=O)CN1CCC(N2CCCCC2)CC1)C(C)=O [LY303870]
- loss of righting reflex (time the test animals were "drunk") (rats): reduced the time the test animals were “drunk”
- ethanol preference (ethanol as compared to water) (rat): reduced preference for ethanol as compared to water
- self-administration of ethanol (rat; 2.5 mg/kg or greater): significant reduction in self-administration of ethanol

Structure (SMILES): C#C[C@]1(O)CC[C@H]2[C@@H]3CC[C@H]4Cc5nc6nc7ccccc7n6cc5C[C@]4(C)[C@H]3CC[C@@]21C [WIN 51,708]
- ethanol consumption (rat): did not have a significant effect
- ethanol preference (ethanol as compared to water) (rat): did not alter preference
